In patent US7906491B2 (Univisitair Medisch Centrum Utrecht, priority 2002, dated 2011):

Experiments:
[1] = tested on: type I holoenzyme of PKA (PKAI); assay: In vitro activation of cAMP-dependent protein kinase, type I holoenzyme (kemptide substrate); format: biochemical; conditions: compared to cAMP, FIG. 5
Protocol: Cyclic AMP dependent protein kinase I and II were reconstituted from isolated subunits and assayed for kinase activity using […] kemptide as substrate, as described previously (15).

[2] = tested on: Rap1; assay: Rap1 activation assay (read-out for Epac) in NIH3T3-A14-Epac1 cells; format: cell-based; conditions: 15 min
Protocol: Upper panel: NIH3T3-A14-Epac1 cells were treated for 15 min with 8-Br-cAMP, and cell lysates were analyzed for activation of Rap1 and phosphorylation of CREB. Lower panel: NIH3T3-A14-Epac1 cells were treated in duplicate for 15 min with increasing concentrations of 8-pCPT-2′-O-Me-cAMP. Cells were lysed and equal amounts of cell lysate were incubated with precoupled GST-RalGDSRBD and Rap1 was assayed by immunoblotting with Rap1 antibody.
Therefore, 8-CPT-2′-O-Me-cAMP was tested in NIH3T3-A14-Epac1 cells for the activation of Epac, using Rap1 as a read-out, and of PKA, using phosphorylation of the common PKA substrate CREB 29 as a read-out.
NIH3T3-A14 cells, stably expressing Epac1, were grown in DMEM with 10% fetal calf serum and 2 μg/ml puromycin. NIH-OVCAR3 (Ovcar3) cells were maintained in RPMI with 10% fetal calf serum. Transient transfection of Ovcar3 cells was performed using the FuGENE 6 transfection reagent (Roche Diagnostics, Mannheim, Germany) according to the manufacturer's procedures, using 6 μg total DNA including a CMV-luciferase plasmid (0.2 μg).
Rap activation assays were performed as described previously (16-18). Briefly, cells were lysed in lysis buffer containing 10% glycerol, 1% Nonidet P-40, 50 mM Tris-Cl pH7.5, 200 mM NaCl, 2mM MgCl2, 1 μM leupeptin, 0.1 μM aprotinin, 5 mM NaF, 1 mM NaVO3. Lysates were clarified by centrifugation and incubated with GST-tagged RalGDS-RBD pre-coupled to glutathione beads to specifically pull down the GTP-bound forms of Rap1. Samples were incubated for 1 hr at 4° C. while tumbling. Beads were washed four times in lysis buffer, and the remaining fluid was removed with an insulin syringe. Proteins were eluted with Laemmli sample buffer and analyzed by sodium dodecyl sulphate (SDS)-polyacrylamide gel electrophoresis and Western blotting using Rap1 antibodies. As a control, Rap1 levels in whole cell lysates were determined.

[3] = tested on: Ovcar3 cells; assay: Adhesion assay of Ovcar3 cells to fibronectin; format: cell-based
Protocol: A: 8-pCPT-2′-O-Me-cAMP stimulates cell adhesion. Upper panel: quantification of Ovcar3 cells adhering to fibronectin after treatment with increasing concentrations of 8-pCPT-2′-O-Me-cAMP. Lower panel: Ovcar3 cells were treated with increasing concentrations of 8-pCPT-2′-O-Me-cAMP for 15 min, cells were lysed and analyzed for activation of Rap1 (upper blot) and CREB (lower blot). Total Rap1 levels are shown (middle blot). B: 8-pCPT-2′-O-Me-cAMP increases the rate of cell adhesion. Upper panel: quantification of Ovcar3 cells adhering to fibronectin at various time points. Lower panel: cells were treated with 60 μM 8-pCPT-2′-O-Me-cAMP for the indicated times. Cell lysates were analyzed for activation of Rap1 (upper blot) and CREB (lower blot). Total levels of Rap1 in cell lysates are shown (middle blot). C: Ovcar3 cells were either pre-incubated at 37° C. for 30 min with the PKA inhibitor H-89 (10 μM) 30 min prior to seeding onto the wells (‘Short’) or H-89 was added 30 min prior to trypsinization and during the recovery period (‘Long’) and seeded onto wells in the absence or presence of 8-pCPT-2′-O-Me-cAMP (100 μM). Cells were allowed to adhere for 1 h. D, cAMP-induced adhesion to fibronectin is blocked by inhibitors of Rap1. Left panel: Ovcar3 cells were transiently transfected with either mock DNA, increasing concentrations of HA-Rap1GAP II (0.5, 1, 2 or 6 μg, respectively), HA-Rap1GAPI (6 μg) or HA-RBD of RalGDS (6 μg), respectively. Cells were treated with 8-Br-cAMP or 8-pCPT-2′-O-Me-cAMP and adhesion to fibronectin was determined. […]
In functional assays, 8-pCPT-2′-O-Me-cAMP appeared to induce integrin-mediated cell adhesion through Epac and Rap1. […] The cells were seeded onto fibronectin-coated plates in the presence or absence of 8-pCPT-2′-O-Me-cAMP and the amount of cells that adhered after a certain period of time was quantified. […]
24-well plates were coated overnight with 2 μg/ml fibronectin (Sigma, St. Louis, Mo., USA) in sodium bicarbonate buffer (Sigma, St. Louis, Mo., USA). […] Cells were centrifuged, counted and resuspended at 3×10^5 cells/ml in serum-free RPMI with 0.5% BSA. […]

[4] = tested on: Rap1; assay: Rap1 activation assay in Ovcar3 cells; format: cell-based
Protocol: A: 8-pCPT-2′-O-Me-cAMP stimulates cell adhesion. Upper panel: quantification of Ovcar3 cells adhering to fibronectin after treatment with increasing concentrations of 8-pCPT-2′-O-Me-cAMP. Lower panel: Ovcar3 cells were treated with increasing concentrations of 8-pCPT-2′-O-Me-cAMP for 15 min, cells were lysed and analyzed for activation of Rap1 (upper blot) and CREB (lower blot). Total Rap1 levels are shown (middle blot). B: 8-pCPT-2′-O-Me-cAMP increases the rate of cell adhesion. Upper panel: quantification of Ovcar3 cells adhering to fibronectin at various time points. Lower panel: cells were treated with 60 μM 8-pCPT-2′-O-Me-cAMP for the indicated times. Cell lysates were analyzed for activation of Rap1 (upper blot) and CREB (lower blot). Total levels of Rap1 in cell lysates are shown (middle blot). C: Ovcar3 cells were either pre-incubated at 37° C. for 30 min with the PKA inhibitor H-89 (10 μM) 30 min prior to seeding onto the wells (‘Short’) or H-89 was added 30 min prior to trypsinization and during the recovery period (‘Long’) and seeded onto wells in the absence or presence of 8-pCPT-2′-O-Me-cAMP (100 μM). Cells were allowed to adhere for 1 h. D, cAMP-induced adhesion to fibronectin is blocked by inhibitors of Rap1. Left panel: Ovcar3 cells were transiently transfected with either mock DNA, increasing concentrations of HA-Rap1GAP II (0.5, 1, 2 or 6 μg, respectively), HA-Rap1GAPI (6 μg) or HA-RBD of RalGDS (6 μg), respectively. Cells were treated with 8-Br-cAMP or 8-pCPT-2′-O-Me-cAMP and adhesion to fibronectin was determined. Right upper panel: luciferase counts of total input cells per well in the above experiment are shown. Right lower panel: expression of HA-Rap1GAPs in the above experiment is shown.
Rap activation assays were performed as described previously (16-18). […] Proteins were eluted with Laemmli sample buffer and analyzed by sodium dodecyl sulphate (SDS)-polyacrylamide gel electrophoresis and Western blotting using Rap1 antibodies. As a control, Rap1 levels in whole cell lysates were determined.

[5] = tested on: human pancreatic β-cells; conditions: cited from earlier work

In the case of `CO[C@@H]1[C@@H]2OP(=O)(O)OC[C@H]2O[C@H]1n1c(Sc2ccc(Cl)cc2)nc2c(N)ncnc21` [Compound I-007, 8-(4-chloro-phenylthio)-2′-O-methyladenosine-3′,5′-cyclic monophosphate], the “ability to activate the type I holoenzyme of PKA” value [1] is reported as “greatly impaired”, the “activation of Rap1” value ([2]; 8-Br-cAMP 1 mM) is reported as “induced the activation of Rap1 only” and the “concentration at which Rap1 is already activated” value ([2]; dose-response) is reported as 10 µM. For the same compound, the EC50 ([3]; Homo sapiens, OVCAR-3, FIG. 7A, read-out: EC50 of enhanced cell adhesion to fibronectin) was about 30 µM, the “time after which increased adhesion was already observed” value ([3]; fibronectin, time-course, FIG. 7B) was 30 min and the “Rap1 activation in time-course” value ([4]; 60 μM, FIG. 7B) was “rapid and sustained Rap1 activation”. For the same compound, the EC50 ([4]; Homo sapiens, OVCAR-3, 0.25 h, 15 min, FIG. 7A) was about 30 µM, the exocytosis [5] was “induces exocytosis” and the “mobilization of Ca2+ from intracellular Ca2+ stores via Epac-mediated CICR” value [5] was “can induce mobilization of Ca^2+”.
